In patent publication US9701681B2, “Fused ring heteroaryl compounds and their use as Trk inhibitors” (CMG Pharmaceutical Co., Ltd., priority 2014, dated 2017):

Key:
[1] = molecular target: T1, TRK A, B & C kinase; assay: TRK A, B & C kinase assay (ADP-Glo / HTRF KinEASE-TK); format: biochemical; conditions: ADP-Glo or HTRF KinEASE-TK kit, isoform not specified, read-out: IC50 (nM) Enzymatic assay
T1 construct: fused on or other part: Carna's Trk kinases are usually GST-tagged cytoplasmic domains
Description: ADP-Glo assay kit was purchased from Promega. poly (Glu, Tyr), Magnesium sulfate, Bovine serum albumin (BSA) and dimethylsulfoxide(DMSO) were purchased from Sigma-Aldrich. Tris-HCl buffer was purchased from BD Gentest. HTRF KinEASE-TK kit was purchased from cisbio. TRK A, B & C kinase was purchased from Carna bioscience.
Kinase assay was performed for Chemical Compounds 1-61 using two methods using luminescent ADP-Glo assay kit (Promega) and HTRF KinEASE-TK assay kit (cisbio). The luminescent ADP-Glo assay kit (Promega) measures ADP formed from a kinase reaction. ADP converted into ATP, which is then converted into light by Ultra-Glo luciferase. The HTRF KinEASE-TK assay kit (cisbio) measures tyrosine kinase activities using one substrate and a universal detection system.
ADP-Glo Assay Kit (Promega)
The protein kinase assay was performed for Chemical Compounds 1-61 at […] concentrations are 0.4 ng/ul of TrKA, 0.5 ng/ul of TrKB and 3 ng/ul of TrKC, respectively), 5 μL of 1 ug/ul stock solution of poly(glu, Tyr), 5 μL of compounds or assay buffer, 5 μL of ATP (125 μM stock solution).
The assay was started by incubating the reaction mixture in a 96-well plate at 30° C. for 1 hr. After the incubation, the assay was terminated by the addition of 25 […] Detection Reagent was added, and the 96-well plate was shaken and then incubated for additional 30 min at ambient temperature. The 96-well reaction plate was then read on an Enspire plate reader. The IC50 values were derived through a curve fitting using SigmaPlot.
HTRF KinEASE-TK Assay Kit (Cisbio)
The HTRF KinEASE-TK assay was performed for Chemical Compounds 1-61 in 384-well low volume microplate (Greiner). The HTRF KinEASE-TK assay format involves the two steps. The first step is kinase reaction step. This kinase reaction step was performed at RT (room temperature) in final volume of 10 ul according to the following assay reaction recipe: 10 ul of kinase mixture (Kinase (2 ul)+ATP (2 ul)+Substrate (2 ul)+Compound (4 ul)). Kinase final concentrations were 0.3 ng/ul of TRKA, 0.1 ng/ul of TRKB, 0.03 ng/ul of TRKC, respectively. ATP final concentrations were 14.7 uM (TRKA), 4.77 uM (TRKB), 25.6 uM (TRKC) respectively. TK-substrate final concentration was 0.3 ng/ul. The mixtures exposed to Dose response concentration (DRC) compound from 0 to 100 nM for 40 min. During the kinase reaction step, the kinase reaction was started by the addition of ATP. Kinase phosphorylates the substrate.
The second is detection step. 10 ul of detection reagents (5 ul Sa-XL 665 in EDTA+5 ul TK Antibody-Eu in EDTA) was added to kinase mixture. This step was performed at room temperature for 1 hr. The detection reagent detects phosphorylated substrates.
Finally 384-well reaction plate was then read on FlexStation 3 machine. The fluorescence was measured at 620 nm (Cryptate) and 665 nm (XL665). A ratio is calculated ([…]/620)×10^4 for each well. The IC50 value was derived through a curve fitting using GraphPad Prism. Table 1 below includes the results of the assays.

[2] = test system: KM12-luc cells; assay: Cell proliferation assay (KM12); conditions: 72 hours exposure, read-out: IC50 (nM) Cell-based assay (KM12)
Description: Doxorubicin was purchased from Sigma Aldrich (D1515). All compounds were diluted in DMSO (Sigma Aldrich, D2650). AlamarBlue® cell viability reagent was purchased from Thermo Scientific (88952). CellTiter 96® AQueous One Solution Cell proliferation assay was purchased from Promega. KM12-luc cells were obtained from JCRB (National Institute of Health Sciences, Tokyo, Japan). They were maintained in DMEM medium (GIB-11965-118) supplemented with 10% fetal bovine serum (Gibco, 16000-044) and MEM Non-Essential Amino Acids Solution (Thermo Scientific, 11140-050). TF-1 cells were obtained from ATCC. They were maintained in RPMI medium (GIB-A10491) supplemented with 10% fetal bovine serum (Gibco, 16000-044), GM-CSF (Thermo Scientific, 11140-050), and β-NGF (R&D systems). Trypsin/EDTA was purchased from Gibco (GIB-25300-054, 0.05%). 96-well plates were purchased from Corning Inc.
The proliferation assay was performed for Chemical Compounds 1-61 s in media supplemented with 10% FBS, using AlamarBlue® cell viability reagent or CellTiter 96® AQueous One Solution Cell proliferation assay kit. Cells were cultured in humidified 37° C. incubator with 5% CO2. To evaluate the antiproliferation activity of compounds, TF-1 cells were adjusted to GM-CSF free media (RPMI, 10% FBS, and 1% penicillin-streptomycin) for 16 hr and were seeded in 96-well plates at 30,000 cells/well with medium (RPMI, 10% FBS, 1% penicillin-streptomycin and 10 ng/ml human β-NGF). KM12-luc were seeded at 10,000 cells per well into 96-well plates. After overnight incubation, serial dilutions of compounds were added to triplicate wells, and cells were exposed for 72 hours. The final concentration of DMSO was adjusted to 0.5% in media. Quantitation of cell growth was assessed using two kinds of reagent. 20 ul of AlamarBlue® reagent in an amount equal to 10% of the culture volume was added to each well and were incubated in humidified 37° C. incubator with 5% CO2 for 2 hr. Otherwise, 20 ul of CellTiter 96® reagent was added to each well and were incubated in the same conditions as previously described. Data were plotted, and GI50 values were calculated using GraphPad software. Table 1 below includes the results of the assays.

| Compound | IC50 [1] [nM] | IC50 [2] [nM] |
| --- | --- | --- |
| Fc1ccc(F)c([C@H]2CCCN2c2ccn3ncc(-c4nnc(N5CCNCC5)o4)c3n2)c1 [Chemical Compound 18, (R)-2-(5-(2-(2,5-difluorophenyl)pyrrolidin-1-yl)pyrazolo[1,5-a]pyrimidin-3-yl)-5-(piperazin-1-yl)-1,3,4-oxadiazole] | > 100 | – |
| Fc1ccc(F)c([C@H]2CCCN2c2ccn3ncc(-c4nnc(-c5cn[nH]c5)s4)c3n2)c1 [Chemical Compound 19, (R)-2-(5-(2-(2,5-difluorophenyl)pyrrolidin-1-yl)pyrazolo[1,5-a]pyrimidin-3-yl)-5-(1H-pyrazol-4-yl)-1,3,4-thiadiazole] | < 10 | – |
| Fc1ccc(F)c([C@H]2CCCN2c2ccn3ncc(-c4nnc(-c5cc[nH]n5)s4)c3n2)c1 [Chemical Compound 20, (R)-2-(5-(2-(2,5-difluorophenyl)pyrrolidin-1-yl)pyrazolo[1,5-a]pyrimidin-3-yl)-5-(1H-pyrazol-3-yl)-1,3,4-thiadiazole] | > 100 | – |
| O=C(Nc1nnc(-c2cnn3ccc(N4CCC[C@@H]4c4cc(F)ccc4F)nc23)s1)c1ccccc1 [Chemical Compound 21, (R)—N-(5-(5-(2-(2,5-difluorophenyl)pyrrolidin-1-yl)pyrazolo[1,5-a]pyrimidin-3-yl)-1,3,4-thiadiazol-2-yl)benzamide] | > 100 | – |
| Fc1ccc(F)c([C@H]2CCCN2c2ccn3ncc(-c4nnc(N5CCNCC5)s4)c3n2)c1 [Chemical Compound 22, (R)-2-(5-(2-(2,5-difluorophenyl)pyrrolidin-1-yl)pyrazolo[1,5-a]pyrimidin-3-yl)-5-(piperazin-1-yl)-1,3,4-thiadiazole] | < 10 | – |
| Fc1ccc(F)c([C@H]2CCCN2c2ccn3ncc(-c4nnc(N5CCCNCC5)s4)c3n2)c1 [Chemical Compound 23, (R)-2-(1,4-diazepan-1-yl)-5-(5-(2-(2,5-difluorophenyl)pyrrolidin-1-yl)pyrazolo[1,5-a]pyrimidin-3-yl)-1,3,4-thiadiazole] | < 10 | – |
| Fc1ccc(F)c([C@H]2CCCN2c2ccn3ncc(-c4nnc(C5CCNCC5)o4)c3n2)c1 [Chemical Compound 24, (R)-2-(5-(2-(2,5-difluorophenyl)pyrrolidin-1-yl)pyrazolo[1,5-a]pyrimidin-3-yl)-5-(piperidin-4-yl)-1,3,4-oxadiazole] | < 10 | – |
| Fc1ccc(F)c([C@H]2CCCN2c2ccn3ncc(-c4cn(C5CCNCC5)nn4)c3n2)c1 [Chemical Compound 33, (R)-5-(2-(2,5-difluorophenyl)pyrrolidin-1-yl)-3-(1-(piperidin-4-yl)-1H-1,2,3-triazol-4-yl)pyrazolo[1,5-a]pyrimidine] | < 10 | – |
| Fc1ccc(F)c([C@H]2CCCN2c2ccn3ncc(-c4cn(C5CCCNC5)nn4)c3n2)c1 (stereo partly drawn) [Chemical Compound 34, 5-((R)-2-(2,5-difluorophenyl)pyrrolidin-1-yl)-3-(1-(piperidin-3-yl)-1H-1,2,3-triazol-4-yl)pyrazolo[1,5-a]pyrimidine] | < 10 | – |
| Fc1ccc(F)c([C@H]2CCCN2c2ccn3ncc(-c4cn(C5CCNC5)nn4)c3n2)c1 (stereo partly drawn) [Chemical Compound 35, 5-((R)-2-(2,5-difluorophenyl)pyrrolidin-1-yl)-3-(1-(pyrrolidin-3-yl)-1H-1,2,3-triazol-4-yl)pyrazolo[1,5-a]pyrimidine] | < 10 | – |
| (R,E)-3-(5-(2-(2,5-difluorophenyl)pyrrolidin-1-yl)pyrazolo[1,5-a]pyrimidin-3-yl)-1-(4-ethylpiperazin-1-yl)prop-2-en-1-one [Chemical Compound 54] | > 100 | – |

Further lines, with some results ahead:

| IC50 [1] [nM] | Compound | IC50 [2] [nM] |
| --- | --- | --- |
| < 10 | O=C(Cn1cc(-c2cnn3ccc(N4CCC[C@@H]4c4cc(F)ccc4F)nc23)nn1)N1CCNCC1 [Chemical Compound 37, (R)-2-(4-(5-(2-(2,5-difluorophenyl)pyrrolidin-1-yl)pyrazolo[1,5-a]pyrimidin-3-yl)-1H-1,2,3-triazol-1-yl)-1-(piperazin-1-yl)ethan-1-one] | – |
| < 10 | O=C1CN(C(=O)/C=C/c2cnn3ccc(N4CCC[C@@H]4c4cc(F)ccc4F)nc23)CCN1 [Chemical Compound 51, (R,E)-4-(3-(5-(2-(2,5-difluorophenyl)pyrrolidin-1-yl)pyrazolo[1,5-a]pyrimidin-3-yl)acryloyl)piperazin-2-one] | – |
| < 10 | CC(C)(O)C1CN(C(=O)/C=C/c2cnn3ccc(N4CCC[C@@H]4c4cc(F)ccc4F)nc23)CCN1 (stereo partly drawn) [Chemical Compound 52, (E)-3-(5-((R)-2-(2,5-difluorophenyl)pyrrolidin-1-yl)pyrazolo[1,5-a]pyrimidin-3-yl)-1-(3-(2-hydroxypropan-2-yl)piperazin-1-yl)prop-2-en-1-one] | – |
| < 10 | CN1CCN(C(=O)/C=C/c2cnn3ccc(N4CCC[C@@H]4c4cc(F)ccc4F)nc23)CC1 [Chemical Compound 53, (R,E)-3-(5-(2-(2,5-difluorophenyl)pyrrolidin-1-yl)pyrazolo[1,5-a]pyrimidin-3-yl)-1-(4-methylpiperazin-1-yl)prop-2-en-1-one] | < 100 |
| < 10 | CC(C)N1CCN(C(=O)/C=C/c2cnn3ccc(N4CCC[C@@H]4c4cc(F)ccc4F)nc23)CC1 [Chemical Compound 55, (R,E)-3-(5-(2-(2,5-difluorophenyl)pyrrolidin-1-yl)pyrazolo[1,5-a]pyrimidin-3-yl)-1-(4-isopropylpiperazin-1-yl)prop-2-en-1-one] | < 100 |
| > 100 | O=C(/C=C/c1cnn2ccc(N3CCC[C@@H]3c3cc(F)ccc3F)nc12)N1CCCNCC1 [Chemical Compound 56, (R,E)-1-(1,4-diazepan-1-yl)-3-(5-(2-(2,5-difluorophenyl)pyrrolidin-1-yl)pyrazolo[1,5-a]pyrimidin-3-yl)prop-2-en-1-one] | – |
| < 10 | CC1(O)CCN(C(=O)/C=C/c2cnn3ccc(N4CCC[C@@H]4c4cc(F)ccc4F)nc23)CC1 [Chemical Compound 58, (R,E)-3-(5-(2-(2,5-difluorophenyl)pyrrolidin-1-yl)pyrazolo[1,5-a]pyrimidin-3-yl)-1-(4-hydroxy-4-methylpiperidin-1-yl)prop-2-en-1-one] | < 10 |
